Source: patent publication US20100324285A1, “ANTIINFLAMMATORY AGENT COMPRISING 2-AMINOPHENOL OR DERIVATIVE THEREOF AS ACTIVE INGREDIENT” (priority 2006, published 2010)

Experiments:
RBL-2H3 = test: Degranulation reaction of basocyte (β-hexosaminidase release); format: cell-based, rat; details: for concentration at which inhibiting activity on degranulation was exerted: summary of Table 3
Protocol: Degranulation rate (%) and inhibition rate of degranulation (%) were calculated based on the measurements of β-hexosaminidase activity in the granules released from the cells by degranulation reaction.
Rat cancer cells from basocyte RBL-2H3(catalognumber“JCRB0023”, commercialized by Health Science Research Resources Bank of Japan Health Sciences Foundation), known to be degranulated by cross-linkage of IgE, were used after cultured in a MEM medium (commercialized by Nissui Pharmaceutical Co., Ltd.) supplemented with 10% (v/v) FCS.
The above cells were recovered from a flask by conventional trypsin-EDTA treatment, then suspended in a MEM medium supplemented with 10% (v/v) FCS to give a cell concentration of 5×10^5 cells/ml. The suspension was inoculated to a 24-well microplate in a volume of 400 μl per well, cultured in a 5% (v/v) carbon dioxide incubator for 3 to 5 hours, then admixed with 0.625 μg/ml of anti dinitrophenol (hereinafter abbreviated as “DNP”) mouse IgE (commercialized by Sigma-Aldrich, Inc., diluted by MEM medium supplied with 10% (v/v) FCS) in a volume of 100 μl per well to sensitize the cells by IgE (a final concentration of the anti DNP-IgE was 0.125 μg/ml). After the cells were cultured in the 5% (v/v) carbon dioxide incubator overnight, the supernatant was removed by suction, and then each well was washed twice with Siraganian buffer (119 mM NaCl, 5 mM KCl, 0.4 mM MgCl2, 25 mM piperazine-N,N″-bis(2-ethane sulfonic acid) (PIPES), 40 mM NaOH, pH 7.2) by 500 μl per well. After admixed with Siraganian buffer containing 0.1% bovine serum albumin (BSA), 5.6 mM glucose and 1 mM CaCl2 (hereinafter described as “BSA-containing Siraganian buffer) in a volume of 160 μl per well, the microplate was warmed at 37° C. for 15 minutes. As test samples, 2-aminophenoxazine-3-one (questiomycin A), arbutin having skin-whitening effect and oxatomide used as therapeutic agents for allergic diseases (positive control) were diluted with BSA-containing Siraganian buffer to give the concentrations shown in Table 3, any of the test samples was added by 20 μl per well, then the microplate was warmed at 37° C. for 15 minutes (wells with the test samples). The well with any of the test samples was admixed with DNP-albumin (commercialized by Sigma-Aldrich, Inc.) diluted with BSA-containing Siraganian buffer to give a concentration of 50 μg/ml by 20 μl per well, and warmed at 37° C. for 15 minutes. After the 24-well microplate was cooled on ice for 10 minutes, the supernatant was collected and 100 μl thereof was injected into a 96-well microplate to measure the β-hexosaminidase activity in the supernatant. As negative control, BL-2H3 cells were cultured and treated in the same way as the wells admixed with the test samples except for that FCS-supplemented MEM medium containing no antibody was used, and the β-hexosaminidase activity in the supernatant was measured (the well without IgE sensitization). After the supernatants were removed from some of the wells without IgE sensitization, the wells were washed twice with BSA-containing Siraganian buffer and admixed with BSA-containing Siraganian buffer by 200 μl per well. The cells were broken by twice repeating freezing at −80° C. and thawing, whole medium containing the broken cells was collected, centrifuged at 1,500 rpm for 10 minutes, and then 100 μl of the supernatant was injected into a 96-well microplate to measure the β-hexosaminidase activity of the whole granule extract.
Each well of the 96-well microplate injected with any of the supernatant from the wells with the test samples, the supernatant from the wells without IgE sensitization or the whole granule extract described above was admixed with 50 μl of citrate buffer (pH 4.5) containing 1 mM 4-nitrophenyl-N-acetyl-β-glucosaminide (PNAG) as substrate, kept at 37° C. for 1 hour, and then the reaction was stopped by adding 50 μl of 0.1 M sodium carbonate (pH 10.5). […]

[1] = system: Mouse melanoma cell line B16; test: Melanin synthesis in B16 cells; format: cell-based; details: for Amount of melanin (%): 5 days, per mg protein versus control; for inhibiting effect on melanin production in combinational use: used with 2-aminophenoxsazine-3-one
Protocol: (§1) As control, a system with no test sample was provided. […] The amount of protein was measured by conventional Bradfordmethod and the amount of melanin per 1 mg of protein was calculated. The amount of melanin (%) was calculated according to Formula 4, and the living cell rate (%) was calculated according to Formula 5.
As control, a system with no test sample was provided. […] The amount of protein was measured by conventional Bradford method and the amount of melanin per 1 mg of protein was calculated. The amount of melanin (%) was calculated according to Formula 4.

RAW264.7 cells [2] = test: NO production by macrophage RAW264.7, Griess method; format: cell-based, mouse; details: LPS + IFN-γ, 2 days, relative level versus control
Source text: As macrophage cells, RAW264.7 cell strain from mouse or macrophage cells obtained from laboratory animals such as mouse can be used. The amount of produced NO can be measured by conventional Griess method. […] RAW264.7 cells, a murine macrophage cell strain, were suspended in PRMI1640 medium supplied with 10% (v/v) fetal calf serum (hereinafter abbreviated as “FCS”) to give a cell suspension with a cell concentration of 1×10^6 cells/ml. […] The experimental system without the test samples described above was set as control. […] NO production, PGE2 production and macrophage growth are indicated as relative levels versus controls.

RAW264.7 cells [3] = test: Macrophage growth, living cell count; format: cell-based, mouse; details: 2 days, relative level versus control
Source text: (§2) RAW264.7 cells, a murine macrophage cell strain, were suspended in PRMI1640 medium supplied with 10% (v/v) fetal calf serum (hereinafter abbreviated as “FCS”) to give a cell suspension with a cell concentration of 1×10^6 cells/ml. […] The experimental system without the test samples described above was set as control. […] NO production, PGE2 production and macrophage growth are indicated as relative levels versus controls.

RAW264.7 cells [4] = test: PGE2 production by macrophage RAW264.7, PGE2-EIA kit; format: cell-based, mouse; details: LPS + IFN-γ, 2 days, relative level versus control
Source text: as §2

[5] = system: Mouse melanoma cell line B16; test: Living cell rate of B16 cells; details: mouse, 5 days
Protocol: as §1

OC[C@H]1O[C@@H](Oc2ccc(O)cc2)[C@H](O)[C@@H](O)[C@@H]1O [AB, arbutin]
inhibition at 31.3 µM (RBL-2H3; Rattus norvegicus, RBL-2H3, 31.3 μM, read-out: Inhibition intensity of degranulation): -30 to 30% | inhibition at 200 µM (RBL-2H3; Rattus norvegicus, RBL-2H3, 200 μM, read-out: Inhibition intensity of degranulation): -30 to 30% | inhibition at 500 µM (RBL-2H3; Rattus norvegicus, RBL-2H3, 500 μM, read-out: Inhibition intensity of degranulation): -30 to 30% | inhibition at 2000 µM (RBL-2H3; Rattus norvegicus, RBL-2H3, 2000 μM, read-out: Inhibition intensity of degranulation): -30 to 30% | concentration at which inhibiting activity on degranulation was exerted (RBL-2H3): no inhibition activity on degranulation

O=C1O[C@H]([C@@H](O)CO)C(O)=C1O[C@H]1O[C@H](CO)[C@@H](O)[C@H](O)[C@H]1O [Ascorbic acid 2-glucoside, ascorbic acid 2-glucoside]
Amount of melanin (%) ([1]; 2 mM): 80% | Amount of melanin (%) ([1]; 4 mM): 68% | Amount of melanin (%) ([1]; 8 mM): 63% | inhibiting effect on melanin production in combinational use [1]: synergistically exert inhibiting effect on melanin production

COc1ccc2c(c1)c(CC(=O)O)c(C)n2C(=O)c1ccc(Cl)cc1 [IN, indomethacin]
NO production (%) (RAW264.7 cells [2]; 0.16 μM): 86% | NO production (%) (RAW264.7 cells [2]; 0.31 μM): 84% | NO production (%) (RAW264.7 cells [2]; 0.63 μM): 81% | NO production (%) (RAW264.7 cells [2]; 1.3 μM): 82% | NO production (%) (RAW264.7 cells [2]; 2.5 μM): 80% | NO production (%) (RAW264.7 cells [2]; 5.0 μM): 80% | NO production (%) (RAW264.7 cells [2]; 10 μM): 78% | Macrophage growth (%) (RAW264.7 cells [3]; 0.16 μM): 102% | Macrophage growth (%) (RAW264.7 cells [3]; 0.31 μM): 104% | Macrophage growth (%) (RAW264.7 cells [3]; 0.63 μM): 108% | Macrophage growth (%) (RAW264.7 cells [3]; 1.3 μM): 117% | Macrophage growth (%) (RAW264.7 cells [3]; 2.5 μM): 120% | Macrophage growth (%) (RAW264.7 cells [3]; 5.0 μM): 122% | Macrophage growth (%) (RAW264.7 cells [3]; 10 μM): 120% | PGE2 production (%) (RAW264.7 cells [4]; 0.16 μM): 4% | PGE2 production (%) (RAW264.7 cells [4]; 0.31 μM): 4% | PGE2 production (%) (RAW264.7 cells [4]; 0.63 μM): 4% | PGE2 production (%) (RAW264.7 cells [4]; 1.3 μM): 3% | PGE2 production (%) (RAW264.7 cells [4]; 2.5 μM): 1% | PGE2 production (%) (RAW264.7 cells [4]; 5.0 μM): 2% | PGE2 production (%) (RAW264.7 cells [4]; 10 μM): 1%

O=c1cc(CO)occ1O [Koji acid, kojic acid]
Amount of melanin (%) ([1]; 0.5 mM): 79% | Amount of melanin (%) ([1]; 1 mM): 71% | Amount of melanin (%) ([1]; 2 mM): 59% | inhibiting effect on melanin production in combinational use [1]: synergistically exert inhibiting effect on melanin production | Living cell rate (%) ([5]; 0.5 mM): 93% | Living cell rate (%) ([5]; 1 mM): 86% | Living cell rate (%) ([5]; 2 mM): 73%

CS(=O)(=O)Nc1ccc([N+](=O)[O-])cc1OC1CCCCC1 [NS]
NO production (%) (RAW264.7 cells [2]; 0.16 μM): 90% | NO production (%) (RAW264.7 cells [2]; 0.31 μM): 89% | NO production (%) (RAW264.7 cells [2]; 0.63 μM): 87% | NO production (%) (RAW264.7 cells [2]; 1.3 μM): 85% | NO production (%) (RAW264.7 cells [2]; 2.5 μM): 85% | NO production (%) (RAW264.7 cells [2]; 5.0 μM): 88% | NO production (%) (RAW264.7 cells [2]; 10 μM): 84% | Macrophage growth (%) (RAW264.7 cells [3]; 0.16 μM): 95% | Macrophage growth (%) (RAW264.7 cells [3]; 0.31 μM): 97% | Macrophage growth (%) (RAW264.7 cells [3]; 0.63 μM): 99% | Macrophage growth (%) (RAW264.7 cells [3]; 1.3 μM): 102% | Macrophage growth (%) (RAW264.7 cells [3]; 2.5 μM): 100% | Macrophage growth (%) (RAW264.7 cells [3]; 5.0 μM): 105% | Macrophage growth (%) (RAW264.7 cells [3]; 10 μM): 110% | PGE2 production (%) (RAW264.7 cells [4]; 0.16 μM): 4% | PGE2 production (%) (RAW264.7 cells [4]; 0.31 μM): 4% | PGE2 production (%) (RAW264.7 cells [4]; 0.63 μM): 2% | PGE2 production (%) (RAW264.7 cells [4]; 1.3 μM): 1% | PGE2 production (%) (RAW264.7 cells [4]; 2.5 μM): 1% | PGE2 production (%) (RAW264.7 cells [4]; 5.0 μM): 5% | PGE2 production (%) (RAW264.7 cells [4]; 10 μM): 2%

O=c1[nH]c2ccccc2n1CCCN1CCN(C(c2ccccc2)c2ccccc2)CC1 [OX, oxatomide]
inhibition at 1.5 µM (RBL-2H3; Rattus norvegicus, RBL-2H3, 1.5 μM, read-out: Inhibition intensity of degranulation): -30 to 30% | inhibition at 5 µM (RBL-2H3; Rattus norvegicus, RBL-2H3, 5 μM, read-out: Inhibition intensity of degranulation): -30 to 30% | inhibition at 23 µM (RBL-2H3; Rattus norvegicus, RBL-2H3, 23 μM, read-out: Inhibition intensity of degranulation): 30 to 50% | inhibition at 94 µM (RBL-2H3; Rattus norvegicus, RBL-2H3, 94 μM, read-out: Inhibition intensity of degranulation): ≥ 50% | concentration at which inhibiting activity on degranulation was exerted (RBL-2H3): ≥ 23 µM

OC[C@H]1O[C@H](O[C@H]2O[C@H](CO)[C@@H](O)[C@H](O)[C@H]2O)[C@H](O)[C@@H](O)[C@@H]1O [Trehalose, trehalose]
Amount of melanin (%) ([1]; 20 mM): 82% | Amount of melanin (%) ([1]; 40 mM): 75% | Amount of melanin (%) ([1]; 80 mM): 66% | inhibiting effect on melanin production in combinational use [1]: synergistically exert inhibiting effect on melanin production
